Assay results reported in ChEMBL document CHEMBL1817597, “Antifungal thiopeptide cyclothiazomycin B1 exhibits growth inhibition accompanying morphological changes via binding to fungal cell wall chitin” (Bioorg Med Chem, 2011).
The source made the active and inactive calls. The calls are words filed in the database; no cut-off is given here.

Assays:
Mucor mucedo [1] = experiment: Antifungal activity against Mucor mucedo IFO 7684 under hyperosmotic shock at 0.081 uM after 2 days by paper disc method; format: functional; conditions: IFO 7684, 48 h, read-out: DIZ
Fusarium oxysporum [2] = experiment: Antifungal activity against Fusarium oxysporum NBRC 5942 under hyperosmotic shock at 0.081 uM after 2 days by paper disc method; format: functional; conditions: NBRC 5942, 48 h, read-out: DIZ
Mucor mucedo [3] = experiment: Antifungal activity against Mucor mucedo IFO 7684 under hypoosmotic shock assessed as increase of fragility of organism at 0.081 uM after 24 hrs measured after distilled water treatment for 10 mins by microscopic analysis; format: functional, organism-based
Fusarium oxysporum [4] = experiment: Antifungal activity against Fusarium oxysporum NBRC 5942 under hypoosmotic shock assessed as increase of fragility of organism at 0.081 uM after 24 hrs measured after distilled water treatment for 10 mins by microscopic analysis; format: functional, organism-based
Mucor mucedo [5] = experiment: Inhibition of chitin synthase in Mucor mucedo IFO 7684 assessed as incorporation of GlcNAc from [14C]-UDP-GlcNAc into acid-insoluble fractions at 4 ug/ml after 55 mins by liquid scintillation counting
Mucor mucedo [6] = experiment: Effect on cell wall re-generation in Mucor mucedo IFO 7684 spheroplasts under hyperosmotic condition at 0.081 uM up to 24 hrs by microscopic analysis; format: functional
Mucor mucedo [7] = experiment: Antimicrobial activity against Mucor mucedo IFO 7684 at 100 uM after 24 hrs by broth microdilution method; format: functional, organism-based
Mucor mucedo [8] = experiment: Induction of morphological changes in Mucor mucedo IFO 7684 assessed as thickening of hyphae at 100 uM after 24 hrs by microscopic analysis; format: functional, organism-based
Mucor mucedo [9] = experiment: Inhibition of RNA synthesis in Mucor mucedo IFO 7684 assessed as [8-14C]-adenine uptake into acid-insoluble fractions at 0.77 mM after 25 mins by liquid scintillation counting; format: functional; conditions: IFO 7684, 25 min
Mucor mucedo [10] = experiment: Inhibition of DNA synthesis in Mucor mucedo IFO 7684 assessed as [8-14C]-adenine uptake into acid-insoluble fractions at 0.77 mM after 25 mins by liquid scintillation counting; format: functional; conditions: IFO 7684, 25 min

Compound: C[C@@H]([C@H](N)C(=O)N[C@H](C(=O)O)[C@H]1O[C@@H](n2ccc(=O)[nH]c2=O)[C@H](O)[C@@H]1O)[C@H](O)c1ccc(O)cn1 [NIKKOMYCIN]
- zone of inhibition at 0.081 µM (Mucor mucedo [1]): 23 mm
- zone of inhibition at 0.081 µM (Fusarium oxysporum [2]): 0 mm
- Activity (Mucor mucedo [3]): Active
- Activity (Fusarium oxysporum [4]): Active
- inhibition (Mucor mucedo [5]): 69%
- Activity (Mucor mucedo [6]): inactive

Compound: CNCCNS(=O)(=O)c1cccc2cnccc12
- Activity (Mucor mucedo [7]): inactive
- Activity (Mucor mucedo [8]): inactive

Compound: CCCC(=O)Nc1ncnc2c1ncn2[C@@H]1O[C@@H]2COP(=O)(O)O[C@H]2[C@H]1OC(=O)CCC
- Activity (Mucor mucedo [7]): inactive
- Activity (Mucor mucedo [8]): inactive

Compound: O=c1[nH]cc(F)c(=O)[nH]1 [FLUOROURACIL]
- inhibition at 770 µM (Mucor mucedo [9]): 75%
- inhibition at 770 µM (Mucor mucedo [10]): 61%
